Values after ≈ are worked out from the molar mass of the structure shown.
Key:
Test in all cases: In vitro antibacterial activity test (broth microdilution)
Type in all cases: cell-based
E. coli β4 = conditions: Escherichia coli, read-out: MIC90
Procedure, shortened: (§1)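 Susceptibility of clinical bacterial isolates is measured by CLSI broth microdilution. Final drug concentrations range 0.0626–128 ug/mL in 2.5% (V/V) DMSO; MIC90 recorded as lowest concentration blocking visible growth of 90% of organisms.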

K. pneumoniae β10 = conditions: Klebsiella pneumoniae; K. pneumoniae β10; read-out: MIC90
Procedure, shortened: as §1

P. aeruginosa 37 = conditions: Pseudomonas aeruginosa, 37, P. aeruginosa 37; read-out: MIC90
Procedure, shortened: as §1

P. aeruginosa 43 = conditions: Pseudomonas aeruginosa; P. aeruginosa 43; read-out: MIC90
Procedure, shortened: as §1

K. pneumoniae β9 = conditions: Klebsiella pneumoniae, K. pneumoniae β9; read-out: MIC90
Procedure, shortened: as §1

[1] = system: A. calcoaceticus ATCC15473; conditions: Acinetobacter calcoaceticus; A. calcoaceticus ATCC15473; read-out: MIC90
Procedure, shortened: as §1

E. coli AG100 = conditions: Escherichia coli, AG100, E. coli AG100; read-out: MIC90
Procedure, shortened: as §1

K. pneumoniae β13 = conditions: Klebsiella pneumoniae, K. pneumoniae β13; read-out: MIC90
Procedure, shortened: as §1

P. aeruginosa 40 = conditions: Pseudomonas aeruginosa, 40, P. aeruginosa 40; read-out: MIC90
Procedure, shortened: as §1

A. baumannii 49 = conditions: Acinetobacter baumannii; A. baumannii 49; read-out: MIC90
Procedure, shortened: as §1

A. baumannii 46 = conditions: Acinetobacter baumannii; A. baumannii 46; read-out: MIC90
Procedure, shortened: as §1

K. pneumoniae 2011E = conditions: Klebsiella pneumoniae, 2011E, K. pneumoniae 2011E; read-out: MIC90
Procedure, shortened: as §1

E. cloacae β19 = conditions: Enterobacter cloacae, read-out: MIC90
Procedure, shortened: as §1

M. catarrhalis 2524 = conditions: Moraxella catarrhalis; M. catarrhalis 2524; read-out: MIC90
Procedure, shortened: as §1

P. aeruginosa 1912E = conditions: Pseudomonas aeruginosa, 1912E, read-out: MIC90
Procedure, shortened: as §1

K. pneumoniae β11 = conditions: Klebsiella pneumoniae; K. pneumoniae β11; read-out: MIC90
Procedure, shortened: as §1

P. aeruginosa 6065Y = conditions: Pseudomonas aeruginosa, read-out: MIC90
Procedure, shortened: as §1

K. pneumoniae β14 = conditions: Klebsiella pneumoniae, read-out: MIC90
Procedure, shortened: as §1

A. baumannii 52 = conditions: Acinetobacter baumannii; A. baumannii 52; read-out: MIC90
Procedure, shortened: as §1

| SMILES | MIC90 (E. coli β4) [µg/mL] | MIC90 (K. pneumoniae β10) [µg/mL] | MIC90 (P. aeruginosa 37) [µg/mL] | MIC90 (P. aeruginosa 43) [µg/mL] | MIC90 (K. pneumoniae β9) [µg/mL] | MIC90 [1] [µg/mL] | MIC90 (E. coli AG100) [µg/mL] | MIC90 (K. pneumoniae β13) [µg/mL] | MIC90 (P. aeruginosa 40) [µg/mL] | MIC90 (A. baumannii 49) [µg/mL] | MIC90 (A. baumannii 46) [µg/mL] | MIC90 (K. pneumoniae 2011E) [µg/mL] | MIC90 (E. cloacae β19) [µg/mL] | MIC90 (M. catarrhalis 2524) [µg/mL] | MIC90 (P. aeruginosa 1912E) [µg/mL] | MIC90 (K. pneumoniae β11) [µg/mL] | MIC90 (P. aeruginosa 6065Y) [µg/mL] | MIC90 (K. pneumoniae β14) [µg/mL] | MIC90 (A. baumannii 52) [µg/mL] |
| --- | --- | --- | --- | --- | --- | --- | --- | --- | --- | --- | --- | --- | --- | --- | --- | --- | --- | --- | --- |
| CC(C)(O/N=C(\C(=O)N[C@@H]1C(=O)N2C(C(=O)[O-])=C(/C=C/C[n+]3cnc(N)c(NC(=O)CCNC(=O)c4cc(=O)c(O)c[nH]4)c3)CSC12)c1csc(N)n1)C(=O)O (some centres unmarked) [Compound 13] | 2 (≈ 2.46 µM) | 1 (≈ 1.23 µM) | 8 (≈ 9.85 µM) | 4 (≈ 4.93 µM) | 1 (≈ 1.23 µM) | 2 (≈ 2.46 µM) | 1 (≈ 1.23 µM) | 1 (≈ 1.23 µM) | 2 (≈ 2.46 µM) | > 128 | 8 (≈ 9.85 µM) | 2 (≈ 2.46 µM) | 8 (≈ 9.85 µM) | 2 (≈ 2.46 µM) | 2 (≈ 2.46 µM) | 64 (≈ 78.8 µM) | 8 (≈ 9.85 µM) | 8 (≈ 9.85 µM) | 128 (≈ 158 µM) |
| CC(C)(O/N=C(\C(=O)N[C@@H]1C(=O)N2C(C(=O)[O-])=C(/C=C/C[n+]3cnc(N)c(NC(=O)c4cc(=O)c(O)cn4O)c3)CSC12)c1csc(N)n1)C(=O)O (some centres unmarked) [Compound 14] | 1 (≈ 1.32 µM) | 0.5 (≈ 0.661 µM) | 16 (≈ 21.1 µM) | 0.25 (≈ 0.33 µM) | 2 (≈ 2.64 µM) | 0.25 (≈ 0.33 µM) | 0.25 (≈ 0.33 µM) | 0.5 (≈ 0.661 µM) | 0.25 (≈ 0.33 µM) | > 128 | 2 (≈ 2.64 µM) | 2 (≈ 2.64 µM) | 64 (≈ 84.6 µM) | 0.25 (≈ 0.33 µM) | 1 (≈ 1.32 µM) | 64 (≈ 84.6 µM) | 2 (≈ 2.64 µM) | 8 (≈ 10.6 µM) | 8 (≈ 10.6 µM) |
| CC(C)(O/N=C(\C(=O)N[C@@H]1C(=O)N2C(C(=O)[O-])=C(C[n+]3cnc(N)c(NCCNC(=O)c4cc(=O)c(O)cn4O)c3)CSC12)c1nc(N)sc1Cl)C(=O)O (some centres unmarked) [Compound 15] | 16 (≈ 19.8 µM) | 0.25 (≈ 0.309 µM) | 0.125 (≈ 0.155 µM) | 0.25 (≈ 0.309 µM) | 4 (≈ 4.95 µM) | 0.5 (≈ 0.619 µM) | 2 (≈ 2.47 µM) | 2 (≈ 2.47 µM) | 0.5 (≈ 0.619 µM) | 8 (≈ 9.9 µM) | 128 (≈ 158 µM) | 8 (≈ 9.9 µM) | 32 (≈ 39.6 µM) | 0.25 (≈ 0.309 µM) | 0.5 (≈ 0.619 µM) | 64 (≈ 79.2 µM) | 1 (≈ 1.24 µM) | 128 (≈ 158 µM) | 2 (≈ 2.47 µM) |
| CC(C)(O/N=C(\C(=O)N[C@@H]1C(=O)N2C(C(=O)[O-])=C(C[n+]3cnc(N)c(NCCNC(=O)c4cc(=O)c(O)cn4O)c3)CSC12)c1nsc(N)n1)C(=O)O (some centres unmarked) [Compound 16] | 4 (≈ 5.16 µM) | 2 (≈ 2.58 µM) | 0.5 (≈ 0.645 µM) | 2 (≈ 2.58 µM) | 128 (≈ 165 µM) | 0.25 (≈ 0.323 µM) | 1 (≈ 1.29 µM) | 32 (≈ 41.3 µM) | 0.25 (≈ 0.323 µM) | > 128 | 2 (≈ 2.58 µM) | 8 (≈ 10.3 µM) | 16 (≈ 20.7 µM) | 1 (≈ 1.29 µM) | 1 (≈ 1.29 µM) | > 128 | 2 (≈ 2.58 µM) | 128 (≈ 165 µM) | 32 (≈ 41.3 µM) |
| C[C@H](O/N=C(\C(=O)N[C@@H]1C(=O)N2C(C(=O)[O-])=C(C[n+]3cnc(N)c(NCCNC(=O)c4cc(=O)c(O)c[nH]4)c3)CSC12)c1nc(N)sc1Cl)C(=O)O (some centres unmarked) [Compound 17] | 4 (≈ 5.14 µM) | 4 (≈ 5.14 µM) | 8 (≈ 10.3 µM) | 2 (≈ 2.57 µM) | 1 (≈ 1.29 µM) | 0.5 (≈ 0.643 µM) | 1 (≈ 1.29 µM) | 1 (≈ 1.29 µM) | 8 (≈ 10.3 µM) | 4 (≈ 5.14 µM) | 16 (≈ 20.6 µM) | 4 (≈ 5.14 µM) | 2 (≈ 2.57 µM) | 0.125 (≈ 0.161 µM) | 2 (≈ 2.57 µM) | 32 (≈ 41.1 µM) | 2 (≈ 2.57 µM) | 32 (≈ 41.1 µM) | 2 (≈ 2.57 µM) |
| CC(C)(O/N=C(\C(=O)N[C@@H]1C(=O)N2C(C(=O)[O-])=C(C[n+]3cnc(N)c(NC(=O)CCNC(=O)c4cc(=O)c(O)cn4O)c3)CSC12)c1nc(N)sc1Cl)C(=O)O (some centres unmarked) [Compound 18] | 16 (≈ 19.1 µM) | 4 (≈ 4.78 µM) | 0.25 (≈ 0.299 µM) | 0.25 (≈ 0.299 µM) | 8 (≈ 9.57 µM) | 1 (≈ 1.2 µM) | 2 (≈ 2.39 µM) | 4 (≈ 4.78 µM) | 2 (≈ 2.39 µM) | 8 (≈ 9.57 µM) | 128 (≈ 153 µM) | 16 (≈ 19.1 µM) | 64 (≈ 76.5 µM) | 0.5 (≈ 0.598 µM) | 1 (≈ 1.2 µM) | 64 (≈ 76.5 µM) | 2 (≈ 2.39 µM) | 128 (≈ 153 µM) | 2 (≈ 2.39 µM) |
| CC(C)(O/N=C(\C(=O)N[C@@H]1C(=O)N2C(C(=O)[O-])=C(C[n+]3cnc(N)c(NC(=O)CCNC(=O)c4cc(=O)c(O)cn4O)c3)CSC12)c1nsc(N)n1)C(=O)O (some centres unmarked) [Compound 19] | 16 (≈ 19.9 µM) | 1 (≈ 1.25 µM) | 0.5 (≈ 0.623 µM) | 2 (≈ 2.49 µM) | 64 (≈ 79.7 µM) | 0.5 (≈ 0.623 µM) | 1 (≈ 1.25 µM) | 16 (≈ 19.9 µM) | 0.5 (≈ 0.623 µM) | 16 (≈ 19.9 µM) | 4 (≈ 4.98 µM) | 16 (≈ 19.9 µM) | 128 (≈ 159 µM) | 1 (≈ 1.25 µM) | 2 (≈ 2.49 µM) | > 128 | 2 (≈ 2.49 µM) | 128 (≈ 159 µM) | 8 (≈ 9.97 µM) |
| C[C@H](O/N=C(\C(=O)N[C@@H]1C(=O)N2C(C(=O)[O-])=C(C[n+]3cnc(N)c(NC(=O)CCNC(=O)c4cc(=O)c(O)cn4O)c3)CSC12)c1nc(N)sc1Cl)C(=O)O (some centres unmarked) [Compound 20] | 8 (≈ 9.73 µM) | 0.5 (≈ 0.608 µM) | 2 (≈ 2.43 µM) | 1 (≈ 1.22 µM) | 2 (≈ 2.43 µM) | 1 (≈ 1.22 µM) | 0.25 (≈ 0.304 µM) | 1 (≈ 1.22 µM) | 4 (≈ 4.87 µM) | 32 (≈ 38.9 µM) | 16 (≈ 19.5 µM) | 8 (≈ 9.73 µM) | 8 (≈ 9.73 µM) | 0.5 (≈ 0.608 µM) | 4 (≈ 4.87 µM) | 16 (≈ 19.5 µM) | 1 (≈ 1.22 µM) | 64 (≈ 77.8 µM) | 2 (≈ 2.43 µM) |

From US9630977B2, “Cephalosporin derivatives and pharmaceutical compositions thereof” (Legochem Biosciences, Inc., priority 2011, dated 2017)
